In the oligonucleotide strings, read from the 5' end, every base follows the letter of its sugar. An asterisk marks phosphorothioate; unmarked linkages are phosphodiester. Other units and linkages are bracketed, terminal groups are in braces. A string of capitals states the bases alone. d = 2'-deoxy (DNA)
test system: human meltrin α RNA; experiment: Suppression of human meltrin α expression by antisense compound in RD cell (real time PCR); assay type: cell-based; conditions: 50 nM; RD cell; corrected by GAPDH
Protocol: First, RD cell (ATCC) was suspended in DMEM containing 10% fetal bovine serum (FBS, SIGMA), and the suspension was inoculated in 6 well culture plate at 2.5×10^5 cells/well/2 mL. After incubating overnight at 37° C. in the presence of 5% CO2, the cells were washed twice with serum-free DMEM, and Opti-MEM medium (GIBCO) was added at 800 μL/well.
Gene transfection reagent Lipofectin (Invitrogen) was diluted with Opti-MEM to 20 μg/mL, and the dilution was allowed to stand at room temperature for 30 minutes. Next, the antisense oligodeoxynucleotide synthesized as described above was heated at 90° C. for 3 minutes, and after quenching on ice, diluted with Opti-MEM to a concentration 10 times higher than the final concentration. Equal amounts of the Lipofectin in Opti-MEM and the antisense oligo DNA in Opti-MEM were mixed, and the mixture was incubated at room temperature for 15 minutes and added to 6 well plate at 200 μL/well.
The culture was incubated at 37° C. for 4 hours in the presence of 5% CO2, and the culture supernatant containing the Lipofectin was removed. The cells were washed twice with serum-free DMEM, and after adding 1 mL/well of Opti-MEM and incubating for 18 hours at 37° C. in the presence of 5% CO2, the cells were subjected to the measurement of the level of expression of meltrin α RNA.
After the washing, RNA was isolated from the cell by using RNA isolation kit (RNeasy Micro Kit, QIAGEN) according to the protocol of the kit, and RNA concentration was determined by measuring absorbance at a wavelength of 260 nm with a spectrophotometer (Nano prop, LMS Co., Ltd.) (1OD=40 μg/mL). After the quantitation, the RNA was prepared to a concentration of 0.1 μg/μL by using DEPC-treated water.
0.35 μg of the isolated RNA, and 3.5 μL of 10× TaqMan buffer, 7.7 μL of 25 mM MgCl2, 7.0 μL of 2.5 mM each dNTP Mix, 1.75 μL of 50 μM Random Hexamers, 0.7 μL of 20 U/μL RNase inhibitor, and 0.9 μL of 50 U/μL MultiScribe Reverse Transcriptase (all purchased from Applied Biosystems) were mixed, and water was added to make up the total volume to 35 μL. This solution was maintained at 25° C. for 10 minutes, at 48° C. for 30 minutes, and at 95° C. for 5 minutes, and reverse transcription was conducted to synthesize cDNA.
A solution in total volume of 20 μL containing 10 μL of TaqMan Universal PCR Master Mix, 0.4 μL of 10 μM TaqMan MGB Probe (sequence 5′FAM-caccgaaggacaatccca-MGB-3′: Applied Biosystems), 0.1 μL of 50 μM Forward primer (sequence ggaagccgccagattcct) for detecting meltrin α, 0.1 μL of 50 μM Reverse primer (sequence […]) for detecting meltrin α (all purchased from Sigma-Genosys), 5 μL of the cDNA solution of (3), and 4.4 μL of water was prepared, and after maintaining the solution at 50° C. for 2 minutes and at 95° C. for 10 minutes, PCR was conducted by repeating 40 cycles of 95° C. for 15 seconds and 60° C. for 1 minute in ABI Prism 7000.
The amount of the human meltrin α RNA was measured by conducting real time PCR by using the plasmid containing the cDNA coding for the human meltrin α for the template to generate the standard curve, and calculating RNA copy number of the meltrin α in each sample. The level of expression of GAPDH was also determined by using a primer and probe set for real time PCR of human GAPDH (Pre-Developed TaqMan Assay Reagents Human GAPDH (20×) (Cat# 4310884E, Applied Biosystems).
The results of the real time PCR of the meltrin α was corrected by the level of expression of the GAPDH to calculate the suppression rate. […]

Substance | suppression rate of expression, 50 nM
H136: ttgaggggtctgctgatgtc (TTGAGGGGTCTGCTGATGTC; antisense; DNA, all phosphorothioate, methylation of C not given here) | + (“+” when the suppression rate was at least 30%)
H132 + 17: gggtaggaatctggcggctt (GGGTAGGAATCTGGCGGCTT; antisense; DNA, all phosphorothioate, methylation of C not given here) | ++ (“++” when the suppression rate was at least 50%)
H144 + 7: ctgcaggcagaggcttctga (CTGCAGGCAGAGGCTTCTGA; antisense; DNA, all phosphorothioate, methylation of C not given here) | ++ (“++” when the suppression rate was at least 50%)
H144 + 6: tgcaggcagaggcttctgag (TGCAGGCAGAGGCTTCTGAG; antisense; DNA, all phosphorothioate, methylation of C not given here) | ++ (“++” when the suppression rate was at least 50%)
H136 + 5: ggccgttgaggggtctgctg (GGCCGTTGAGGGGTCTGCTG; antisense; DNA, all phosphorothioate, methylation of C not given here) | + (“+” when the suppression rate was at least 30%)
H004: ctggcacaagccagccttga (CTGGCACAAGCCAGCCTTGA; antisense; DNA, all phosphorothioate, methylation of C not given here) | + (“+” when the suppression rate was at least 30%)
H145 + 5: ttgttctggccagaggatct (dT*dT*dG*dT*dT*dC*dT*dG*dG*dC*dC*dA*dG*dA*dG*dG*dA*dT*dC*dT; antisense) | +++ (“+++” when the suppression rate was at least 70%)
H130 + 5: gagcctgacagggttggaag (GAGCCTGACAGGGTTGGAAG; antisense; DNA, all phosphorothioate, methylation of C not given here) | ++ (“++” when the suppression rate was at least 50%)
H143: ttggcttacaggtcccctgg (TTGGCTTACAGGTCCCCTGG; antisense; DNA, all phosphorothioate, methylation of C not given here) | + (“+” when the suppression rate was at least 30%)
H136 + 16: agggacattcaggccgttga (AGGGACATTCAGGCCGTTGA; antisense; DNA, all phosphorothioate, methylation of C not given here) | + (“+” when the suppression rate was at least 30%)
H145 + 1: tctggccagaggatctgcag (TCTGGCCAGAGGATCTGCAG; antisense; DNA, all phosphorothioate, methylation of C not given here) | +++ (“+++” when the suppression rate was at least 70%)
H133 + 4: cttcggtgggtaggaatctg (CTTCGGTGGGTAGGAATCTG; antisense; DNA, all phosphorothioate, methylation of C not given here) | ++ (“++” when the suppression rate was at least 50%)
H137 + 4: tggggctgagggacattcag (TGGGGCTGAGGGACATTCAG; antisense; DNA, all phosphorothioate, methylation of C not given here) | ++ (“++” when the suppression rate was at least 50%)
H139 + 17: cgctaggtgcacgtggggcc (CGCTAGGTGCACGTGGGGCC; antisense; DNA, all phosphorothioate, methylation of C not given here) | + (“+” when the suppression rate was at least 30%)
H144 + 5: gcaggcagaggcttctgagg (GCAGGCAGAGGCTTCTGAGG; antisense; DNA, all phosphorothioate, methylation of C not given here) | ++ (“++” when the suppression rate was at least 50%)
H150 + 15: ggtggatctgggcacttggt (dG*dG*dT*dG*dG*dA*dT*dC*dT*dG*dG*dG*dC*dA*dC*dT*dT*dG*dG*dT; antisense) | + (“+” when the suppression rate was at least 30%)

same assay, conditions: 200 nM; RD cell; corrected by GAPDH

Substance | suppression rate of expression, 200 nM
H136: ttgaggggtctgctgatgtc (TTGAGGGGTCTGCTGATGTC; antisense; DNA, all phosphorothioate, methylation of C not given here) | +++ (“+++” when the suppression rate was at least 70%)
H034: acatgtccatggtagtaaca (ACATGTCCATGGTAGTAACA; antisense; DNA, all phosphorothioate, methylation of C not given here) | ++ (“++” when the suppression rate was at least 50%)
H098: ctctctcaaagcagatccca (dC*dT*dC*dT*dC*dT*dC*dA*dA*dA*dG*dC*dA*dG*dA*dT*dC*dC*dC*dA; antisense) | + (“+” when the suppression rate was at least 30%)
H063: catgccgatggtggtccctt (dC*dA*dT*dG*dC*dC*dG*dA*dT*dG*dG*dT*dG*dG*dT*dC*dC*dC*dT*dT; antisense) | ++ (“++” when the suppression rate was at least 50%)
H163: cactgtaatcaacattctgc (dC*dA*dC*dT*dG*dT*dA*dA*dT*dC*dA*dA*dC*dA*dT*dT*dC*dT*dG*dC; antisense) | + (“+” when the suppression rate was at least 30%)
H004: ctggcacaagccagccttga (CTGGCACAAGCCAGCCTTGA; antisense; DNA, all phosphorothioate, methylation of C not given here) | +++ (“+++” when the suppression rate was at least 70%)
H177: gcctggacctgaagcccctt (dG*dC*dC*dT*dG*dG*dA*dC*dC*dT*dG*dA*dA*dG*dC*dC*dC*dC*dT*dT; antisense) | +++ (“+++” when the suppression rate was at least 70%)
H251: aggaagggctaacatgccag (DNA dA*dG*dG*dA*dA*dG*dG*dG*dC*dT*dA*dA*dC*dA*dT*dG*dC*dC*dA*dG; antisense) | +++ (“+++” when the suppression rate was at least 70%)
H084: cagggtacaggtggtggcat (dC*dA*dG*dG*dG*dT*dA*dC*dA*dG*dG*dT*dG*dG*dT*dG*dG*dC*dA*dT; antisense) | ++ (“++” when the suppression rate was at least 50%)
H102: agcatctctcatctcgcatt (dA*dG*dC*dA*dT*dC*dT*dC*dT*dC*dA*dT*dC*dT*dC*dG*dC*dA*dT*dT; antisense) | + (“+” when the suppression rate was at least 30%)
H143: ttggcttacaggtcccctgg (TTGGCTTACAGGTCCCCTGG; antisense; DNA, all phosphorothioate, methylation of C not given here) | +++ (“+++” when the suppression rate was at least 70%)
H089: ggaggtcacaggagttgctg (dG*dG*dA*dG*dG*dT*dC*dA*dC*dA*dG*dG*dA*dG*dT*dT*dG*dC*dT*dG; antisense) | + (“+” when the suppression rate was at least 30%)
H235: ttgcctagatacagtgggga (DNA dT*dT*dG*dC*dC*dT*dA*dG*dA*dT*dA*dC*dA*dG*dT*dG*dG*dG*dG*dA; antisense) | ++ (“++” when the suppression rate was at least 50%)
H048: cagctccacatacttagttg (CAGCTCCACATACTTAGTTG; antisense; DNA, all phosphorothioate, methylation of C not given here) | ++ (“++” when the suppression rate was at least 50%)

same assay, conditions: 200 nM; chimeric 2′-methoxy antisense oligonucleotides; RD cell

Substance | suppression rate of expression, 200 nM
H076-OMe2: chimeric antisense oligonucleotide CTTTCtccaggctggTCTCC, uppercase 2′-methoxy nucleotides, lowercase phosphorothioate nucleotides (CTTTCTCCAGGCTGGTCTCC; 2'-O-methyl at 1, 2, 3, 4, 5, 16, 17, 18, 19, 20, other sugars, backbone and T or U not given here; lowercase gap nucleotides phosphorothioate) | +++ (“+++” when the suppression rate was at least 70%)

From patent publication US20080292619A1, “Pharmaceutical Composition Containing Meltrin Antagonist” (MOCHIDA PHARMACEUTICAL CO., LTD., priority 2004, published 2008)
